Assay [1] addresses 5-hydroxytryptamine receptor 2B (Homo sapiens, UniProt P41595). Format: functional, cell-based.
Assay [2] deals with T1, Alpha-2C adrenergic receptor (Homo sapiens, UniProt P18825).
T1 sequence (P18825 whole entry): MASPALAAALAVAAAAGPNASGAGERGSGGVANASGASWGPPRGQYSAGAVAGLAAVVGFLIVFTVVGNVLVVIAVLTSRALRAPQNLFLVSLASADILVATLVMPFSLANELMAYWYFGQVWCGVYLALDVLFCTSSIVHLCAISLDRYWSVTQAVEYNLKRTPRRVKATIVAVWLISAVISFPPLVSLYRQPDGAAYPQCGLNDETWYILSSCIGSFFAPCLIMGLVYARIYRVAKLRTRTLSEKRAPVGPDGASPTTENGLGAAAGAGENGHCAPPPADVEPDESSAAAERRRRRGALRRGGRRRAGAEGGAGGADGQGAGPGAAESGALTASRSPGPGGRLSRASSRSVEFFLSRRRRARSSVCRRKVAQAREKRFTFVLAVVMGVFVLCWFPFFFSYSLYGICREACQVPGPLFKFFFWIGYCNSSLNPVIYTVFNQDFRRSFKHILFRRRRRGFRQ
Format: functional.

In assay [3] the target is D(1A) dopamine receptor (Homo sapiens, UniProt P21728). Format: functional, cell-based.
Chain of D(1A) dopamine receptor (P21728 whole entry): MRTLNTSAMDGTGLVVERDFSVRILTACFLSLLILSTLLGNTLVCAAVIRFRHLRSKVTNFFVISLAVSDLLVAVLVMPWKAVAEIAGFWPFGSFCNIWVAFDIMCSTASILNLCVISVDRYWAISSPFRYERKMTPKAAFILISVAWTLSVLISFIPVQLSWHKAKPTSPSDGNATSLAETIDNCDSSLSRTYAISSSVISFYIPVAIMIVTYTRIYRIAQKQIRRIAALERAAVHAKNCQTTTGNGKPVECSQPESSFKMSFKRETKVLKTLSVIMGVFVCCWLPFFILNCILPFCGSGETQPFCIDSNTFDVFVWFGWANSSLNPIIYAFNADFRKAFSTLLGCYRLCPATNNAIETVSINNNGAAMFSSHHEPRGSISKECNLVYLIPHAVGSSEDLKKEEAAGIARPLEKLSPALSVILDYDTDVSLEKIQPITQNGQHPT
The target in assay [4] is Delta-type opioid receptor (Homo sapiens, UniProt P41143).
Chain of Delta-type opioid receptor (P41143 whole entry): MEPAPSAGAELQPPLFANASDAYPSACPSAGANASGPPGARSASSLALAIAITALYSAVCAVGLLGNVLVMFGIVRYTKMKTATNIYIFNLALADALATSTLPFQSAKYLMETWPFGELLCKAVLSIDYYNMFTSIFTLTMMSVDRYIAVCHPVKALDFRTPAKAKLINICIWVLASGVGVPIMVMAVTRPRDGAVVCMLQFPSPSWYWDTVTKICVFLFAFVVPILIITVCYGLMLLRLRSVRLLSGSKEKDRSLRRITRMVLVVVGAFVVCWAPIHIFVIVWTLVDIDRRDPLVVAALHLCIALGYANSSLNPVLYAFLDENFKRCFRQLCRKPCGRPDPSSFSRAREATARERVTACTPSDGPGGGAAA
The target of assay [5] is Bile salt export pump (Homo sapiens, UniProt O95342). Format: functional.
Chain of Bile salt export pump (O95342 whole entry): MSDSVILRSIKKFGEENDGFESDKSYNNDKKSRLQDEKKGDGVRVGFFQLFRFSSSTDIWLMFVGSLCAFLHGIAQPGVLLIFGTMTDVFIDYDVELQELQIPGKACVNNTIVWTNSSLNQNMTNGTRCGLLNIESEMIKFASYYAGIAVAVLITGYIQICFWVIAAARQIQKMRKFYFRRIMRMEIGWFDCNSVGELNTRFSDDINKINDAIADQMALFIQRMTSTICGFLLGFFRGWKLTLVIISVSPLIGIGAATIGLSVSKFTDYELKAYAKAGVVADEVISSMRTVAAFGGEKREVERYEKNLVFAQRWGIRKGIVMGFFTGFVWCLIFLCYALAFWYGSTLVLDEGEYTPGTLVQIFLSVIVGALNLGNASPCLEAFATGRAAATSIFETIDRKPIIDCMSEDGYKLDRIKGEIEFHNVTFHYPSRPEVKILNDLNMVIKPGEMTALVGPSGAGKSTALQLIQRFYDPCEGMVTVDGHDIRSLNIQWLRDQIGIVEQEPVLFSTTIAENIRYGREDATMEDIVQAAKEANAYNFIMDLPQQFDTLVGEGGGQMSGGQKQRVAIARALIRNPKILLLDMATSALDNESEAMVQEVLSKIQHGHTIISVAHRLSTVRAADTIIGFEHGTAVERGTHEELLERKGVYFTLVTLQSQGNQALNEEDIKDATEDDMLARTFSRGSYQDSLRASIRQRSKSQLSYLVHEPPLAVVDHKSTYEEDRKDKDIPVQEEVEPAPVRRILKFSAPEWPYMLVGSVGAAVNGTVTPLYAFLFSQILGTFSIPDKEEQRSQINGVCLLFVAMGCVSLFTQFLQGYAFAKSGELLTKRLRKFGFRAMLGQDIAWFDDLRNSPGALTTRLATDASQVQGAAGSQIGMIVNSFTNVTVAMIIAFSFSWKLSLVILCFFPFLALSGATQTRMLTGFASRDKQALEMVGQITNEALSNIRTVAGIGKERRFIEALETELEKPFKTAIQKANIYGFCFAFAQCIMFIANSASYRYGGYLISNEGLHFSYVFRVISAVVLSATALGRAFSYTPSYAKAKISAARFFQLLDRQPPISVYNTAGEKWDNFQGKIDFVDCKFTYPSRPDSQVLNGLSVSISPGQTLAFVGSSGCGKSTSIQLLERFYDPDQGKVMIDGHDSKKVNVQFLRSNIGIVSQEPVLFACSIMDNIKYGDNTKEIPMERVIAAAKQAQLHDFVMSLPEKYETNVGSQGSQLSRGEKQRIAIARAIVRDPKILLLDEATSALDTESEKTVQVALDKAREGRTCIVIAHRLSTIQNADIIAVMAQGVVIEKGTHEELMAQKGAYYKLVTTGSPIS
The target of assay [6] is Sodium-dependent noradrenaline transporter (Homo sapiens, UniProt P23975).
Chain of Sodium-dependent noradrenaline transporter (P23975 whole entry): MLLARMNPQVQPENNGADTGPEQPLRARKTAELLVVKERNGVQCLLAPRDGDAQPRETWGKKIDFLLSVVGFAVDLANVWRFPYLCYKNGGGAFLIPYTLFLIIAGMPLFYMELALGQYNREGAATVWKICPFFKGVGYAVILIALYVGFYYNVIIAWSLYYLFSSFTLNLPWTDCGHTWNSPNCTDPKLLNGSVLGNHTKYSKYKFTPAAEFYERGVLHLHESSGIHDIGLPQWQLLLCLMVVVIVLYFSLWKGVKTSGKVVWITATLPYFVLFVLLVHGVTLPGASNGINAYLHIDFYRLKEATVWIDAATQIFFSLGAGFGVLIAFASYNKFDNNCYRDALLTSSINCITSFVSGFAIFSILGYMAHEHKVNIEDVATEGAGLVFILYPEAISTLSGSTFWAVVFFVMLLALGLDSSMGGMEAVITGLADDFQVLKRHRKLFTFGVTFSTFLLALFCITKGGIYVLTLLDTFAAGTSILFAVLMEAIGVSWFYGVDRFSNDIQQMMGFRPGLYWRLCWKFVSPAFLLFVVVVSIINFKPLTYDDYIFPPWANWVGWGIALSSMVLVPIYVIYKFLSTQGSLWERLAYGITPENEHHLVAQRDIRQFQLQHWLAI
For assay [7], the target named is Adenosine receptor A2a (Homo sapiens, UniProt P29274).
Chain of Adenosine receptor A2a (P29274 whole entry): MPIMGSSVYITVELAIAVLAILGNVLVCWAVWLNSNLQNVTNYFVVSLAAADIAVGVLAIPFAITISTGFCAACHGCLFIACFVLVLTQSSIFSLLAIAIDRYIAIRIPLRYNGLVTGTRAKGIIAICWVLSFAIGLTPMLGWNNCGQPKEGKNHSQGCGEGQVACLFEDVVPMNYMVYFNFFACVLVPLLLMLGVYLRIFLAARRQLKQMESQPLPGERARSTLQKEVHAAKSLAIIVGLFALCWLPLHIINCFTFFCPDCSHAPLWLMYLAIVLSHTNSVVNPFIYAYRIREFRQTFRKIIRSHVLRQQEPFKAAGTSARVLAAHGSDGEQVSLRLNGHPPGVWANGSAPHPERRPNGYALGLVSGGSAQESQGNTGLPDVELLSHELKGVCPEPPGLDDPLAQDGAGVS
Assay [8] has as its target T2, Alpha-2A adrenergic receptor (Homo sapiens, UniProt P08913).
T2 sequence (P08913 whole entry): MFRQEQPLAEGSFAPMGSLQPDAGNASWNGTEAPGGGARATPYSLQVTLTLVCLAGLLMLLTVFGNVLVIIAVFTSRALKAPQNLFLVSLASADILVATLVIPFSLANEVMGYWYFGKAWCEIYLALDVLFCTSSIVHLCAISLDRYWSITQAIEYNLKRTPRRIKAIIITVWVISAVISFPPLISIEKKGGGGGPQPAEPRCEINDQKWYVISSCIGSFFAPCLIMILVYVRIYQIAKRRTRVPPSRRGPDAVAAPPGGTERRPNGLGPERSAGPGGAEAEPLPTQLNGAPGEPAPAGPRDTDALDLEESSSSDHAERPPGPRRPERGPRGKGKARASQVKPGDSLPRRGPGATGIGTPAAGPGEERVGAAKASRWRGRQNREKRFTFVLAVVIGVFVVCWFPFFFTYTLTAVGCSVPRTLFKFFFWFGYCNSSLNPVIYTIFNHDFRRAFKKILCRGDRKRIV
Format: functional, cell-based.

The target of assay [9] is T3, Adenosine receptor A1 (Homo sapiens, UniProt P30542).
T3 sequence (P30542 whole entry): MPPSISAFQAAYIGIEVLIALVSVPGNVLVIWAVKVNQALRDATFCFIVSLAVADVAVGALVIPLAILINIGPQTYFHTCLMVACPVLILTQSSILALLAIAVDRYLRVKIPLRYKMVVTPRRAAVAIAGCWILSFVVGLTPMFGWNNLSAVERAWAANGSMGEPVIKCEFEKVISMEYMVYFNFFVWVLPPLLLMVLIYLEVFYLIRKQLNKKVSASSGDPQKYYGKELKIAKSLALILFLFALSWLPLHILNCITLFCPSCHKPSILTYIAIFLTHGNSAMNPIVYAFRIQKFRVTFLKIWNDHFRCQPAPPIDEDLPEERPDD

Assay [10] has as its target T4, 5-hydroxytryptamine receptor 1A (Homo sapiens, UniProt P08908).
T4 sequence (P08908 whole entry): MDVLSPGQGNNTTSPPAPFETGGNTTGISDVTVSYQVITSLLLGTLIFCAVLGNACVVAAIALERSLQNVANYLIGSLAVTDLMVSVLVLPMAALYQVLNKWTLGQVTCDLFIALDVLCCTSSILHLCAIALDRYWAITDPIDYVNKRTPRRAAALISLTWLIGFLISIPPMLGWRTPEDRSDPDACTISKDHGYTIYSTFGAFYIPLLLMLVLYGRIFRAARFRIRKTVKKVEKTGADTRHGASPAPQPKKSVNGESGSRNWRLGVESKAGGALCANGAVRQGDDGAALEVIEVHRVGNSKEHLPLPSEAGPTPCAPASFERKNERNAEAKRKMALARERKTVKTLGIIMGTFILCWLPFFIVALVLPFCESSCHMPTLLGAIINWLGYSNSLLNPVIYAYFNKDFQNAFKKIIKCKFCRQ
Format: functional, cell-based.

The target of assay [11] is T5, 5-hydroxytryptamine receptor 3A (Homo sapiens, UniProt P46098).
T5 sequence (P46098 whole entry): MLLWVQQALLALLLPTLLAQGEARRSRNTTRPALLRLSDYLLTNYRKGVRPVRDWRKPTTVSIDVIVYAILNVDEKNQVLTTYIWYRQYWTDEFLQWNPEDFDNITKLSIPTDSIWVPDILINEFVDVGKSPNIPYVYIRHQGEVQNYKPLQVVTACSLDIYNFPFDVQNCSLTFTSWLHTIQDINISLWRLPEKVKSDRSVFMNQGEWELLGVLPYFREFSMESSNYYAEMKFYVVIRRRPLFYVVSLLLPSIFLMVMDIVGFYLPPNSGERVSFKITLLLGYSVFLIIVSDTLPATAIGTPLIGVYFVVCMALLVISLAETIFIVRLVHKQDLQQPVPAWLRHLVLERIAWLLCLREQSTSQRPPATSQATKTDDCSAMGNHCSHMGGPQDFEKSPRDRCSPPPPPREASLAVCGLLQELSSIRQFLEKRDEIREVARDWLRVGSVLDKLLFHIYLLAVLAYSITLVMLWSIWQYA
Format: functional.

For assay [12], the target named is 3',5'-cyclic-AMP phosphodiesterase 4D (Homo sapiens, UniProt Q08499). Format: functional.
Chain of 3',5'-cyclic-AMP phosphodiesterase 4D (Q08499 whole entry): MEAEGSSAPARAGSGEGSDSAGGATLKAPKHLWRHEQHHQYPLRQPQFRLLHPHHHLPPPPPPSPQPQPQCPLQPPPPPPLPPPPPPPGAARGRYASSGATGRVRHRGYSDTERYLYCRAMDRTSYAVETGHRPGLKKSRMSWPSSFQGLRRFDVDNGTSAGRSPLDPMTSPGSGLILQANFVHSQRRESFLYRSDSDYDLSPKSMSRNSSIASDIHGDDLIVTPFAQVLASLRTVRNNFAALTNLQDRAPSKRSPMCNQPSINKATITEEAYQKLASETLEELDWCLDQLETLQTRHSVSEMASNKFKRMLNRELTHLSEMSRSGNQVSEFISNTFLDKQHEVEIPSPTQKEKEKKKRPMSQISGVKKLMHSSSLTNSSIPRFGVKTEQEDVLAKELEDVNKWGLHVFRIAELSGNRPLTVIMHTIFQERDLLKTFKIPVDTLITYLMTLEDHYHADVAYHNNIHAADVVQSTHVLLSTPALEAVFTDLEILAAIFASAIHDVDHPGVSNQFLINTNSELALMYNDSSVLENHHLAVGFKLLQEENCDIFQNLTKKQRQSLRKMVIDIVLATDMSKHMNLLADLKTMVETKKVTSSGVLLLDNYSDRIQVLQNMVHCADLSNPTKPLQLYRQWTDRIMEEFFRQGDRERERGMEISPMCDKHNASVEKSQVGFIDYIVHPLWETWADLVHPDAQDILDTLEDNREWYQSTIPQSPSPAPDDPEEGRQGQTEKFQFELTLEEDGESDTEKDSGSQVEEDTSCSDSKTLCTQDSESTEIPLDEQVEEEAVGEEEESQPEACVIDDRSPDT
Assay [13] has as its target Melanocortin receptor 3 (Homo sapiens, UniProt P41968).

A word on the AC50: it is the concentration at which the activity in the assay is half-maximal.

SMILES strings stand for the structures.
Also: assay procedure not described here.

Chain of Melanocortin receptor 3 (P41968 whole entry): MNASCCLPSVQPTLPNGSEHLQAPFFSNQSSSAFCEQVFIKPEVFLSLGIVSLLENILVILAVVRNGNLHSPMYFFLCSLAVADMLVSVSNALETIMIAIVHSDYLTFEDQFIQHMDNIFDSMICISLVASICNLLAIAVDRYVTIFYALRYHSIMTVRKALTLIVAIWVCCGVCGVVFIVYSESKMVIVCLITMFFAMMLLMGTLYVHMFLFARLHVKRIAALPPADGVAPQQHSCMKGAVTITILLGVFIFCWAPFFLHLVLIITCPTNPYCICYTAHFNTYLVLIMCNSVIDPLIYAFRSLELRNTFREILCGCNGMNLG
Chain of 5-hydroxytryptamine receptor 2B (P41595 whole entry): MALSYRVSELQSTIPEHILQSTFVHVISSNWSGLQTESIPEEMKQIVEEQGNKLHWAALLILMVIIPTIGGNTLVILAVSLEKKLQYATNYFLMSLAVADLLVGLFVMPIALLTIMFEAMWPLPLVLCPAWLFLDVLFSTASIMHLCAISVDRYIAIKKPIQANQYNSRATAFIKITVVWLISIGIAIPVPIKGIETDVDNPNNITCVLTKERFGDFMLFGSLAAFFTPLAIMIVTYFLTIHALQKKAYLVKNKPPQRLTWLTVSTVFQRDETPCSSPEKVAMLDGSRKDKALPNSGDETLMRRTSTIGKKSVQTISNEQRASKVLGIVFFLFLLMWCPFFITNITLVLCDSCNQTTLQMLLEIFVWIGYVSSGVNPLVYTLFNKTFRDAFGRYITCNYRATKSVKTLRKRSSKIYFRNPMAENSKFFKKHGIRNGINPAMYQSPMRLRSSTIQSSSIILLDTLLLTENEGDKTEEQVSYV

For the molecule `CC(C)(CO)c1cc2cc(NC(=O)C3(c4ccc5c(c4)OC(F)(F)O5)CC3)c(F)cc2n1C[C@@H](O)CO` [TEZACAFTOR], the AC50 in assay [1] is more than 10 µM; in assay [2], more than 30 µM; in assay [3] it was more than 30 µM; in [4], more than 30 µM; in assay [5], more than 10 µM; in [6], more than 30 µM. The AC50 in assay [7] was more than 30 µM; in [8] it was more than 30 µM; in assay [9], more than 30 µM; in [10] it was more than 30 µM; in assay [11], more than 30 µM; in assay [12], 8.7 µM. This molecule also showed a concentration at half-maximal activity (AC50) in [13] of more than 30 µM.

`Cc1c(C)c2c(c(C)c1O)CCC(C)(COc1ccc(CC3SC(=O)NC3=O)cc1)O2` (configuration not stated) [TROGLITAZONE]: the AC50 is 2 µM in assay [1]; 24 µM in assay [2]; more than 30 µM in assay [3]; more than 30 µM in assay [4]; 5.01 µM in assay [5]; 15 µM in assay [6]. Further, the half-maximal activity concentration (AC50) in assay [7] is more than 30 µM; in assay [8] it was more than 30 µM; in assay [9], more than 30 µM; in [10], more than 30 µM; in assay [11], more than 30 µM; in assay [12], 2.88 µM. In assay [13], this molecule registered an AC50 of more than 30 µM.

Take `c1cnc2cc3c(cc2n1)[C@@H]1CNC[C@H]3C1` [VARENICLINE]: the AC50 was more than 30 µM in assay [1]; more than 30 µM in [2]; more than 30 µM in assay [3]; more than 30 µM in assay [4]; more than 300 µM in assay [5]; more than 30 µM in assay [6]. Moreover, the AC50 in assay [7] was more than 30 µM; in assay [8], more than 30 µM; in assay [9], more than 30 µM; in assay [10], more than 30 µM; in assay [11], 13 µM; in [12] it was more than 30 µM. The molecule also returned an AC50 in assay [13] of more than 30 µM.

Consider `Nc1c2c(nc3ccccc13)CCCC2O` (configuration not stated) [VELNACRINE], for which the half-maximal activity concentration (AC50) in assay [1] is more than 30 µM; in assay [2], more than 30 µM; in assay [3], more than 30 µM; in assay [4] it was more than 30 µM; in [5], more than 300 µM; in assay [6], more than 30 µM. The AC50 in [7], in assay [8], in assay [9], in [10], in assay [11] and in assay [12] was more than 30 µM throughout. Besides, the AC50 in [13] was more than 30 µM.

(Values after ChEMBL document CHEMBL5291721, “A preclinical secondary pharmacology resource illuminates target-adverse drug reaction associations of marketed drugs” (Nat Commun, 2023).)
